Test results published in ChEMBL document CHEMBL5634105, “Novel chlorin e6-based conjugates of tyrosine kinase inhibitors: Synthesis and photobiological evaluation as potent photosensitizers for photodynamic therapy” (Eur J Med Chem, 2023).
Converted amounts (≈) assume the structure as drawn. The source made the active and inactive calls. No cut-off for these calls is given here.

Experiments:
[1] = test system: HepG2; experiment: Induction of autophagy in human HepG2 cells assessed as increase in autophagosome number by measuring rosy fluorescence at 5 uM incubated for 24 hrs under 1 J/cm2 light irradiation by DAPRed dye based confocal microscopy; format: functional, cell-based
[2] = Aqueous solubility of the compound at pH 7.4 at 1 to 100 uM incubated for 48 hrs by HPLC analysis; format: physicochemical; details: aqueous solution, dose 1-100 µM
[3] = test system: HepG2; experiment: Induction of cell cycle arrest in human HepG2 cells assessed as accumulation of cells at G1 phase at 0.5 uM incubated for 24 hrs under 10 J/cm2 light irradiation by propidium iodide staining based flow cytometry (Rvb= 67.74 %); format: functional
[4] = test system: HepG2; experiment: Induction of apoptosis in human HepG2 cells assessed as early apoptotic cells at 0.5 uM incubated for 24 hrs under 10 J/cm2 light irradiation by annexin V-FITC/propidium iodide staining based flow cytometry (Rvb= 0.43 %); format: functional
[5] = molecular target: T1, Broad substrate specificity ATP-binding cassette transporter ABCG2 (Homo sapiens, UniProt Q9UNQ0); experiment: Inhibition of ABCG2 in human HepG2 cells assessed as downregulation of ABCG2 expression incubated for 48 hrs by Western blotting analysis; format: cell-based; details: hepg2, 48 h
T1 sequence (Q9UNQ0 whole entry): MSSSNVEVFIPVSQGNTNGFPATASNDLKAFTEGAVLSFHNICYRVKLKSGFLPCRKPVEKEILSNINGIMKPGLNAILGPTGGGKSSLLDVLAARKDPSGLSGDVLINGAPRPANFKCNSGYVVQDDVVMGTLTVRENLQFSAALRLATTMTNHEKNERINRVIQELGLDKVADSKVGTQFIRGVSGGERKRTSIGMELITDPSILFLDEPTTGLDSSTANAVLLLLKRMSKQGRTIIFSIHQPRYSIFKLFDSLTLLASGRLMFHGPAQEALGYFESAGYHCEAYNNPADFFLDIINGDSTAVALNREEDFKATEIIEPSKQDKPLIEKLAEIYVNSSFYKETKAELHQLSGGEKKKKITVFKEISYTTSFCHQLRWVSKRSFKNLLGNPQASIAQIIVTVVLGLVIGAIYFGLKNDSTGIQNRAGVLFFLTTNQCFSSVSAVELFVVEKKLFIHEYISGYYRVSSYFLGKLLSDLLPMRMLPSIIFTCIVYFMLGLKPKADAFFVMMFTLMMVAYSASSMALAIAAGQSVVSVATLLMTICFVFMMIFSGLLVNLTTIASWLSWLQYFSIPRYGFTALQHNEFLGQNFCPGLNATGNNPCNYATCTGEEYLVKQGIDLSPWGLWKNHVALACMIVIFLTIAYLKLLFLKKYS

## C=Cc1c(C)c2cc3nc(c(CC(=O)NCCOCCOCCOCCC(=O)OCCN4CCN(c5cc(Nc6ncc(C(=O)Nc7c(C)cccc7Cl)s6)nc(C)n5)CC4)c4[nH]c(cc5nc(cc1[nH]2)C(C)=C5CC)c(C)c4C(=O)O)[C@@H](CCC(=O)O)[C@@H]3C
[1]
  Activity: Active
[2]
  solubility at 48 h: 178 µM (≈ 226 µg/mL)
[3]
  Activity: 64.79%
[4]
  Activity: 19.1%
[5]
  inhibition (INH): Dose-Dependent Effect
